Results on two molecules are retold here after patent US10028952B2, “Methods of treating diabetes or obesity using bile acids, bile salts, and mimics thereof” (SATIOGEN PHARMACEUTICALS, INC., priority 2008, dated 2018).

The target in test [1] is T1, TGR5 (Homo sapiens, UniProt Q8TDU6).
T1 construct: expressed in transfected cells; host or cells: CHO cells
T1 sequence (Q8TDU6 1-330): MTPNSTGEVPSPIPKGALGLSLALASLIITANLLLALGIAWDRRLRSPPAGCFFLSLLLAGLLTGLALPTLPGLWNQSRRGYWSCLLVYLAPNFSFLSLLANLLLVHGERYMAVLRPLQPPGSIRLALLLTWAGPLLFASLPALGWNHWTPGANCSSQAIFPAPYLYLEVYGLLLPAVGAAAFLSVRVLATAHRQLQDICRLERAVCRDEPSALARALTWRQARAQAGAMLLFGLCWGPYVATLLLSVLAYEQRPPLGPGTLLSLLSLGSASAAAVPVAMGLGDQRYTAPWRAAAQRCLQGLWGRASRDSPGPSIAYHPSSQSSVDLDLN
To be noted: TGR5-transfected CHO cells; more potent than the named bile acid; cited from earlier work.

For test [2], the system named is overnight-fasted Sprague Dawley rats. The settings on record: 500 mM sodium taurocholate, 3 mL rectal gel, 1% methyl cellulose, over 6 hours. The procedure: Using a stainless steel dissolving vessel fitted with a propeller stirrer 1 gram of methyl cellulose is dissolved in 100 mL of purified water and stirred for 15 minutes. 5 syringes connected to gavage tubes are then each filled with 3 mL of the composition.
The sodium taurocholate rectal gel described above was rectally administered to 6 conscious overnight-fasted subjects (e.g., Sprague Dawley rats) and the control rectal gel without the sodium taurocholate was rectally administered to 5 conscious overnight-fasted subjects (e.g., Sprague Dawley rats). Each rat was then exposed to pre-weighed food and the cumulative consumption of the food was determined over a 6 hour period by weighing the food after 30 minutes, 60 minutes, 120 minutes, 240 minutes and 360 minutes.

In test [3] the test system is obese human diabetics. To be noted: rectal, 0.66-20.0 mmoles in 20 ml 1% carboxymethyl cellulose gel, after 100 mg sitagliptin. On the procedure: Studies were undertaken after an overnight fast following administration (8-10 hours prior to bile salt) of 100 mg sitagliptin, a DPP-4 inhibitor that protects GLP-1 from inactivation by proteolysis. […] The taurocholic acid was administered into the rectum by syringe in a total volume of 20 ml of 1% carboxymethyl cellulose gel. Each dose was administered on a different day with at least three days between doses.

Test [4] deals with overnight-fasted Sprague Dawley rats. The procedure: Using a stainless steel dissolving vessel fitted with a propeller stirrer 1 gram of methyl cellulose is dissolved in 100 mL of purified water and stirred for 15 minutes. 12 syringes connected to gavage tubes are then each filled with 3 mL of the composition.
A 4×4 Latin Square design is used to monitor the effect of the different concentration of taurocholate on the food uptake of overnight-fasted Sprague Dawley rats. Each concentration is tested in triplicate with four rats used per replicate.
The ED50 for inhibition of food intake is obtained by plotting the normalizing the dose response for the anorectic effect of taurocholate to the control data as a log of taurocholate dose vs the percentage of control cumulative intake (FIG. 7).

Where [5] appears, read: 50, 150, 500 mM rectal gels, 3 mL.

Like-named read-outs stand apart in the source and are kept apart here. Some results are limits rather than exact numbers.

On to `C[C@H](CCC(=O)O)[C@H]1CC[C@H]2[C@@H]3[C@H](O)C[C@@H]4C[C@H](O)CC[C@]4(C)[C@H]3C[C@H](O)[C@]12C` [CA, cholic acid], for which the “rank of potency (TGR5 agonist potency)” value in test [1] is “> hyodeoxycholic acid (HDCA”.

As to `C[C@H](CCC(=O)NCCS(=O)(=O)O)[C@H]1CC[C@H]2[C@@H]3[C@H](O)C[C@@H]4C[C@H](O)CC[C@]4(C)[C@H]3C[C@H](O)[C@]12C` [taurocholate, taurocholic acid], the “cumulative food intake compared to rats instilled with gel alone” value in test [2] is “reduced”. Besides, in test [3], the “circulating GLP-1 levels” value is recorded as “increase” and the “circulating PYY levels” value is “increase”. For the same molecule, in test [4] (setting [5]), the “cumulative food intake, relation to quantity administered” value is on record as “dose dependently related” and the “time for which differences in food uptake are maintained” value is “at least 24 hours”. For the same molecule, the “ED50 for inhibition of food intake” value in test [4] (24 hour intake, rectal gel) was 7.2 mmol/rat. The “ED50 for inhibition of food intake” value in test [4] (at 1 hour, 3 mL doses, rectal gel) stood at 528 mM. Moreover, the “ED50 for inhibition of food intake” value in test [4] (at 1 hour, rectal gel) is reported as 1.6 mmol/rat. For the same molecule, in test [4] (rectal gel), the “dose dependency for inhibition of intake between 8 and 24 hours” value is listed as “not different”.
